Experimental data as given in publication PMC4162805 (European journal of medicinal chemistry, 2014).
“Also recorded” adds a separate entry of the source.

biological target: T1, κ-opioid receptor (KOR) (Homo sapiens, UniProt P41145); test: not given; assay type: binding; settings: not given
T1 sequence (P41145 whole entry): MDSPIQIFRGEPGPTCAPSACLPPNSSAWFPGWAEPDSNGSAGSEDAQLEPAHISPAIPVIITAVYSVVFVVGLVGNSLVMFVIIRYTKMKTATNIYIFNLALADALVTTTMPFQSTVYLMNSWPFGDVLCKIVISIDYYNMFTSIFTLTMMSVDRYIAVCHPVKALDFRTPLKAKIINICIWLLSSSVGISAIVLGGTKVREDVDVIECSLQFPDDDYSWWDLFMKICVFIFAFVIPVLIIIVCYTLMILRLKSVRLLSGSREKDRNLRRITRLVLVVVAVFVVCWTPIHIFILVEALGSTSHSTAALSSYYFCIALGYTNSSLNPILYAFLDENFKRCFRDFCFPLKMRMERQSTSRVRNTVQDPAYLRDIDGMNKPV

SMILES	Selectivity DOR/KOR	fold reduced KOR affinity compared to 1 [fold]	Selectivity MOR/KOR	fold reduced KOR affinity compared to 4a [fold]	fold increased KOR affinity compared to 4a [fold]	affinity for KOR (in words)
C=CC(=O)O[C@H]1C[C@@H](C(=O)OC)[C@]2(C)CC[C@H]3C(=O)O[C@H](c4ccoc4)C[C@]3(C)[C@H]2C1=O [4a, 2-O-Acryloylsalvinorin B]	>552	6				
C=C(C)C(=O)O[C@H]1C[C@@H](C(=O)OC)[C@]2(C)CC[C@H]3C(=O)O[C@H](c4ccoc4)C[C@]3(C)[C@H]2C1=O [4b, 2-O-Methacryloylsalvinorin B]			>293			
COC(=O)[C@@H]1C[C@H](OC(=O)C=C(C)C)C(=O)[C@H]2[C@@]1(C)CC[C@H]1C(=O)O[C@H](c3ccoc3)C[C@]21C [4c, 2-O-(3′,3′-Dimethylacryloyl)salvinorin B]				21		
C=C(C)CC(=O)O[C@H]1C[C@@H](C(=O)OC)[C@]2(C)CC[C@H]3C(=O)O[C@H](c4ccoc4)C[C@]3(C)[C@H]2C1=O [4d, 2-O-(3′-Methylbut-3′-enoyl)salvinorin B]	>1666				3	
C/C=C/C(=O)O[C@H]1C[C@@H](C(=O)OC)[C@]2(C)CC[C@H]3C(=O)O[C@H](c4ccoc4)C[C@]3(C)[C@H]2C1=O [4e, 2-O-Crotonoylsalvinorin B]	>395					
C/C=C(\C)C(=O)O[C@H]1C[C@@H](C(=O)OC)[C@]2(C)CC[C@H]3C(=O)O[C@H](c4ccoc4)C[C@]3(C)[C@H]2C1=O [4g, 2-O-(2′,3′-Dimethylacryloyl)salvinorin B]	>65		>65	8		
COC(=O)[C@@H]1C[C@H](OC(=O)/C=C/c2ccccc2)C(=O)[C@H]2[C@@]1(C)CC[C@H]1C(=O)O[C@H](c3ccoc3)C[C@]21C [5a, 2-O-Cinnamoylsalvinorin B]					2	
COC(=O)[C@@H]1C[C@H](OC(=O)/C=C/c2ccccc2OC)C(=O)[C@H]2[C@@]1(C)CC[C@H]1C(=O)O[C@H](c3ccoc3)C[C@]21C [5b, 2-O-(2″-Methoxycinnamoyl)salvinorin B]	>154		>154			
COC(=O)[C@@H]1C[C@H](OC(=O)/C=C/c2ccc(OC)cc2)C(=O)[C@H]2[C@@]1(C)CC[C@H]1C(=O)O[C@H](c3ccoc3)C[C@]21C [5c, 2-O-(4″-Methoxycinnamoyl)salvinorin B]	>74		>74			
COC(=O)[C@@H]1C[C@H](OC(=O)/C=C/c2cc(OC)ccc2OC)C(=O)[C@H]2[C@@]1(C)CC[C@H]1C(=O)O[C@H](c3ccoc3)C[C@]21C [5d, 2-O-(2″,5″-Dimethoxycinnamoyl)salvinorin B]	>17		>17			
COC(=O)[C@@H]1C[C@H](OC(=O)/C=C/c2ccc(OC)cc2OC)C(=O)[C@H]2[C@@]1(C)CC[C@H]1C(=O)O[C@H](c3ccoc3)C[C@]21C [5e, 2-O-(2″,4″-Dimethoxycinnamoyl)salvinorin B]	>62		>62			
COC(=O)[C@@H]1C[C@H](OC(=O)/C=C/c2cc(OC)c(OC)c(OC)c2)C(=O)[C@H]2[C@@]1(C)CC[C@H]1C(=O)O[C@H](c3ccoc3)C[C@]21C [5f, 2-O-(3″,4″,5″-Trimethoxycinnamoyl)salvinorin B]						no appreciable affinity; also recorded: no substantial affinity
COC(=O)[C@@H]1C[C@H](OC(=O)/C=C/c2ccc3c(c2)OCO3)C(=O)[C@H]2[C@@]1(C)CC[C@H]1C(=O)O[C@H](c3ccoc3)C[C@]21C [5g, 2-O-(3″,4″-Dioxymethylenecinnamoyl)salvinorin B]	>31					
COC(=O)[C@@H]1C[C@H](OC(=O)/C=C/c2ccccc2[N+](=O)[O-])C(=O)[C@H]2[C@@]1(C)CC[C@H]1C(=O)O[C@H](c3ccoc3)C[C@]21C [5h, 2-O-(2″-Nitrocinnamoyl)salvinorin B]	>67		>67			
COC(=O)[C@@H]1C[C@H](OC(=O)/C=C/c2ccc([N+](=O)[O-])cc2)C(=O)[C@H]2[C@@]1(C)CC[C@H]1C(=O)O[C@H](c3ccoc3)C[C@]21C [5i, 2-O-(4″-Nitrocinnamoyl)salvinorin B]	>35		>35			
COC(=O)[C@@H]1C[C@H](OC(=O)/C=C/c2ccccc2C(F)(F)F)C(=O)[C@H]2[C@@]1(C)CC[C@H]1C(=O)O[C@H](c3ccoc3)C[C@]21C [5j, 2-O-(2″-Trifluoromethylcinnamoyl)salvinorin B]	>77		>77			
COC(=O)[C@@H]1C[C@H](OC(=O)/C=C/c2cc(C(F)(F)F)ccc2C(F)(F)F)C(=O)[C@H]2[C@@]1(C)CC[C@H]1C(=O)O[C@H](c3ccoc3)C[C@]21C [5l, 2-O-[2″,5″-bis(Trifluoromethyl)cinnamoyl]salvinorin B]	<0.58					no substantial affinity
COC(=O)[C@@H]1C[C@H](OC(=O)/C=C/c2cccnc2)C(=O)[C@H]2[C@@]1(C)CC[C@H]1C(=O)O[C@H](c3ccoc3)C[C@]21C [5m, 2-O-[3′-(3″-Pyridyl)acryloyl]salvinorin B]	<0.48		<0.03			no substantial affinity

biological target: T1, κ-opioid receptor (KOR); test: not given; settings: previously observed; cited from earlier work

SMILES	wash-resistant irreversible binding at KOR
COC(=O)[C@@H]1C[C@H](OC(=O)CSC#N)C(=O)[C@H]2[C@@]1(C)CC[C@H]1C(=O)O[C@H](c3ccoc3)C[C@]21C [RB-64, 22-thiocyanatosalvinorin A]	wash-resistant irreversible binding

biological target: δ-opioid receptor (DOR) (Homo sapiens, UniProt P41143); test: Radioligand binding at DOR against [3H]DADLE; settings: not given
Sequence (P41143 whole entry): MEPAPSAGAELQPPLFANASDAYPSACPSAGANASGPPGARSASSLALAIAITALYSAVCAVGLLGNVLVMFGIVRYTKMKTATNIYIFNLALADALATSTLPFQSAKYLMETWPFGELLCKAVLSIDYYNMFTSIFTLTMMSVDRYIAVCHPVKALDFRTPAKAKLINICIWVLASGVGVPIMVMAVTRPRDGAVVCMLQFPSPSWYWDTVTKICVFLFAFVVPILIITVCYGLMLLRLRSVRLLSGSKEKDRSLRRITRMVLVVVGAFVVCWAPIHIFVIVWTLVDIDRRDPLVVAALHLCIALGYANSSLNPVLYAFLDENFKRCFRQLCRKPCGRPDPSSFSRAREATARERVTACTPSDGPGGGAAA

SMILES	affinity for DOR (in words)
COC(=O)[C@@H]1C[C@H](OC(=O)/C=C/c2cc(OC)c(OC)c(OC)c2)C(=O)[C@H]2[C@@]1(C)CC[C@H]1C(=O)O[C@H](c3ccoc3)C[C@]21C [5f, 2-O-(3″,4″,5″-Trimethoxycinnamoyl)salvinorin B]	no appreciable affinity

biological target: hKOR receptor (Homo sapiens, UniProt P41145); test: cell-based; settings: not given
Sequence (P41145 whole entry): as the sequence (P41145 whole entry) above

SMILES	fold lower cAMP inhibition level (efficacy) than 1 [×]	IC50 [nM]
C=CC(=O)O[C@H]1C[C@@H](C(=O)OC)[C@]2(C)CC[C@H]3C(=O)O[C@H](c4ccoc4)C[C@]3(C)[C@H]2C1=O [4a, 2-O-Acryloylsalvinorin B]	380	
COC(=O)[C@@H]1C[C@H](OC(=O)/C=C/c2ccccc2)C(=O)[C@H]2[C@@]1(C)CC[C@H]1C(=O)O[C@H](c3ccoc3)C[C@]21C [5a, 2-O-Cinnamoylsalvinorin B]	20	7
